Measurements as given in patent US10039753B2, “Imidazo[4,5-c]quinoline and imidazo[4,5-c][1,5]naphthyridine derivatives as LRRK2 inhibitors” (Pfizer Inc., priority 2015, dated 2018).
pIC50: −log10 of the molar value.

Columns and labels:
[1] = molecular target: T1, GST-tagged truncated LRRK2 (Homo sapiens, UniProt Q5S007); assay: LRRK2 Assay, Format 1 (Lantha Screen), WT; type: biochemical; settings: Format 1, wild-type LRRK2; geometric mean of 2-4 determinations unless footnoted (a: ≥5 determinations; b: single determination; c: determined on trifluoroacetate salt)
T1 construct: GST-tagged truncated LRRK2 from Invitrogen (Cat # PV4874); GST; purchased Invitrogen PV4874
T1 sequence (Q5S007 970-2527 limits assumed): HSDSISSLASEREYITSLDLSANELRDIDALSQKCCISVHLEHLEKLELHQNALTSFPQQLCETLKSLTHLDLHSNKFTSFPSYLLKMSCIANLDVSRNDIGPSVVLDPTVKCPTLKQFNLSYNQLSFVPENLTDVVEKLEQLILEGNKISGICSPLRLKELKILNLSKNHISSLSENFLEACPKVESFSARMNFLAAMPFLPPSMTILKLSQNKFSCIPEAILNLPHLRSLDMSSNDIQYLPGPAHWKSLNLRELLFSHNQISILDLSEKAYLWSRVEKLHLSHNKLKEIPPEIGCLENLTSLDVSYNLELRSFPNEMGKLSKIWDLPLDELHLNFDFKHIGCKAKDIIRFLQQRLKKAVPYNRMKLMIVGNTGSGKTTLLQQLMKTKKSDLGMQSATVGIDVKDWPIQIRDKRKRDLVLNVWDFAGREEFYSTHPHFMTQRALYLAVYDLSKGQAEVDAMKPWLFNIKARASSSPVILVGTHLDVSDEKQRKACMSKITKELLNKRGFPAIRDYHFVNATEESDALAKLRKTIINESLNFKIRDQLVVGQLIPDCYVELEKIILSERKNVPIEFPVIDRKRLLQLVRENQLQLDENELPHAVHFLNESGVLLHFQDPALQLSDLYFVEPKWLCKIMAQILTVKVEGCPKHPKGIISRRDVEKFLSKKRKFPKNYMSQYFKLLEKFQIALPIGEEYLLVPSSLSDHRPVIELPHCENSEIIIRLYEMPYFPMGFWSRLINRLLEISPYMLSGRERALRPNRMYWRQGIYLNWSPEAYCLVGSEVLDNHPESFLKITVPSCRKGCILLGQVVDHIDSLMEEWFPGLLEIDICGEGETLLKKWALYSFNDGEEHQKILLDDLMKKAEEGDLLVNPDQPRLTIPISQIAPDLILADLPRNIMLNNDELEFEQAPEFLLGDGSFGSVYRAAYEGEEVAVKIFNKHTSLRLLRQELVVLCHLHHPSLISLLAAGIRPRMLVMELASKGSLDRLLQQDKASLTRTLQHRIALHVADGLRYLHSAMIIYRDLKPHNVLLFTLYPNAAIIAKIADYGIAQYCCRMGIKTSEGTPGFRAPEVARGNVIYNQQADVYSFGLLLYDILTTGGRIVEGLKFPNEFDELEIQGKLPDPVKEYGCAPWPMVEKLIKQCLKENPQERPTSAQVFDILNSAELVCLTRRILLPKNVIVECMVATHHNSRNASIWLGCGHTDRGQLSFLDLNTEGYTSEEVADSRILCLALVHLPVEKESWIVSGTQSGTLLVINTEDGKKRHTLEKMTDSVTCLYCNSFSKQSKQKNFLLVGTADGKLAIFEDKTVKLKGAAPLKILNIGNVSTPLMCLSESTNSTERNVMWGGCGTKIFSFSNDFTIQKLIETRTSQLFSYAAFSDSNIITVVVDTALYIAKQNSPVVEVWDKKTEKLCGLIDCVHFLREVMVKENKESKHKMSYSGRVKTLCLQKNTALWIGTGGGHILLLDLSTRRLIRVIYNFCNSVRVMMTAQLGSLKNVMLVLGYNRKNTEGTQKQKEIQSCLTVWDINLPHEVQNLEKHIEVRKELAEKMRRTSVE
Method in brief: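 Kinase activity measured by TR-FRET: GST-tagged truncated LRRK2 (4 μg/mL working solution) reacted with fluorescein-labeled LRRKtide (ERM-based peptide) across a compound dose response for 2 h at room temperature. Reaction stopped with EDTA-containing detection buffer (20 mM Tris pH 7.6) holding 2 nM terbium anti-phospho-ERM antibody.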

[2] = tested on: kinase selectivity mini-panel; assay: Kinase selectivity (mini-panel), further assay run, Table 5A; type: biochemical; settings: 1 mM ATP, 1 μM drug concentration; for percent inhibition of ABL: kinase ABL; for percent inhibition of AKT: kinase AKT; for percent inhibition of AURA: kinase AURA; for percent inhibition of BTK: kinase BTK; for percent inhibition of CDK2_CyclinA: kinase CDK2_CyclinA; for percent inhibition of CHK1: kinase CHK1; for percent inhibition of CHK2: kinase CHK2; for percent inhibition of CKIIa′: kinase CKIIa′; for percent inhibition of CKIa: kinase CKIa; for percent inhibition of CaMKIIa: kinase CaMKIIa; for percent inhibition of EGFR: kinase EGFR; for percent inhibition of ERK2: kinase ERK2; for percent inhibition of EphA2: kinase EphA2; for percent inhibition of FGFR1: kinase FGFR1; for percent inhibition of GSK3b: kinase GSK3b; for percent inhibition of HGFR: kinase HGFR; for percent inhibition of IRAK4: kinase IRAK4; for percent inhibition of IRK: kinase IRK; for percent inhibition of JAK3: kinase JAK3; for percent inhibition of KDR (VEGF): kinase KDR (VEGF); for percent inhibition of LCK: kinase LCK; for percent inhibition of MARK1: kinase MARK1; for percent inhibition of MK2: kinase MK2; for percent inhibition of MLCK_sk: kinase MLCK_sk; for percent inhibition of MST2: kinase MST2; for percent inhibition of MST4: kinase MST4; for percent inhibition of PAK4: kinase PAK4; for percent inhibition of PDK1: kinase PDK1; for percent inhibition of PIM2: kinase PIM2; for percent inhibition of PKACa: kinase PKACa; for percent inhibition of PRKCB2: kinase PRKCB2; for percent inhibition of ROCKI: kinase ROCKI; for percent inhibition of SGK: kinase SGK; for percent inhibition of SRC: kinase SRC; for percent inhibition of TAO2: kinase TAO2; for percent inhibition of TIE2: kinase TIE2; for percent inhibition of TRKA: kinase TRKA; for percent inhibition of ZC1 (HGK): kinase ZC1 (HGK); for percent inhibition of p38: kinase p38
Method: The compounds were run using a commercially available kinase selectivity assay which is available from CarnaBio USA, Inc. 209 West Central St., Suite 307, Natick, Mass. 01760 USA. The compounds of Examples 3, 4, 5 and 22 were run in the assay at a concentration of 1 μM using an ATP concentration of 1 mM.

mutant G2019S LRRK2 = mutant G2019S LRRK2 (Homo sapiens, UniProt Q5S007, G2019S); assay: LRRK2 Assay, Format 1 (Lantha Screen), G2019S mutant
mutant G2019S LRRK2, sequence (Q5S007 970-2527 G2019S limits assumed): as the sequence (Q5S007 970-2527 limits assumed) above, with G1050S counted along it
Method: LRRK2 kinase activity was measured using Lantha Screen technology from Invitrogen. GST-tagged truncated LRRK2 from Invitrogen (Cat # PV4874) was incubated with a fluorescein-labeled peptide substrate based upon ezrin/radixin/moesin (ERM), also known as LRRKtide (Invitrogen cat # PR8976A), in the presence of a dose response of compound. Upon completion, the assay was stopped and detected with a terbium labeled anti-phospho-ERM antibody (Invitrogen, cat # PR8975A). […] Aliquots (3.5 μL) of the 100% DMSO dose response were mixed with 46.5 μL water then 1 μL of this mixture was added to the 3 μL substrate mix in the 384-well plate. The kinase reaction was started with 3 μL of a working solution of LRRK2 enzyme at a concentration of 4 μg/mL. […] The reaction was allowed to progress at room temperature for two hours and then stopped with the addition of 7 μL of detection buffer (20 mM Tris pH 7.6, 0.01% NP-40, 0.02% NaN3, 6 mM EDTA with 2 nM terbium labeled anti-phospho-ERM).
All final concentrations of substrate ATP and enzyme were the same.

Cc1cc(Cc2nc3cnc4ccc(Cl)cc4c3n2[C@@H]2CCO[C@H](C)C2)no1 [Example 4, 8-Chloro-2-[(5-methyl-1,2-oxazol-3-yl)methyl]-1-[(2R,4R)-2-methyltetrahydro-2H-pyran-4-yl]-1H-imidazo[4,5-c]quinoline]
pIC50 [1]: 8.08 | percent inhibition of ABL [2]: −2.51% | percent inhibition of AKT [2]: 1.03% | percent inhibition of AURA [2]: 7.17% | percent inhibition of BTK [2]: 0.22% | percent inhibition of CDK2_CyclinA [2]: 8.08% | percent inhibition of CHK1 [2]: 8.15% | percent inhibition of CHK2 [2]: 2.72% | percent inhibition of CKIIa′ [2]: 4.36% | percent inhibition of CKIa [2]: 18.22% | percent inhibition of CaMKIIa [2]: 7.62% | percent inhibition of EGFR [2]: 3.07% | percent inhibition of ERK2 [2]: 4.54% | percent inhibition of EphA2 [2]: 0.85% | percent inhibition of FGFR1 [2]: 20.35% | percent inhibition of GSK3b [2]: 4.45% | percent inhibition of HGFR [2]: −5.99% | percent inhibition of IRAK4 [2]: 3.88% | percent inhibition of IRK [2]: 2.83% | percent inhibition of JAK3 [2]: −1.51% | percent inhibition of KDR (VEGF) [2]: 14.24% | percent inhibition of LCK [2]: 15.63% | percent inhibition of MARK1 [2]: 1.48% | percent inhibition of MK2 [2]: 3.04% | percent inhibition of MLCK_sk [2]: 3.07% | percent inhibition of MST2 [2]: 16.25% | percent inhibition of MST4 [2]: 1.29% | percent inhibition of PAK4 [2]: 3.85% | percent inhibition of PDK1 [2]: 4.87% | percent inhibition of PIM2 [2]: −0.54% | percent inhibition of PKACa [2]: −0.89% | percent inhibition of PRKCB2 [2]: 4.71% | percent inhibition of ROCKI [2]: 1.89% | percent inhibition of SGK [2]: 1.58% | percent inhibition of SRC [2]: 4.66% | percent inhibition of TAO2 [2]: 0.82% | percent inhibition of TIE2 [2]: 4.72% | percent inhibition of TRKA [2]: 11.84% | percent inhibition of ZC1 (HGK) [2]: −3.58% | percent inhibition of p38 [2]: 9.62% | pIC50 (mutant G2019S LRRK2): 8.31

Cc1nc(Cc2nc3cnc4ccc(Cl)cc4c3n2[C@@H]2CCO[C@H](C)C2)no1 [Example 5, 8-Chloro-2-[(5-methyl-1,2,4-oxadiazol-3-yl)methyl]-1-[(2R,4R)-2-methyltetrahydro-2H-pyran-4-yl]-1H-imidazo[4,5-c]quinoline]
pIC50 [1]: 8.34 | percent inhibition of ABL [2]: 1.3% | percent inhibition of AKT [2]: −3.11% | percent inhibition of AURA [2]: −0.59% | percent inhibition of BTK [2]: −1.9% | percent inhibition of CDK2_CyclinA [2]: 3.76% | percent inhibition of CHK1 [2]: 4.68% | percent inhibition of CHK2 [2]: 2.05% | percent inhibition of CKIIa′ [2]: 5.19% | percent inhibition of CKIa [2]: 8.85% | percent inhibition of CaMKIIa [2]: 1.1% | percent inhibition of EGFR [2]: −0.51% | percent inhibition of ERK2 [2]: 2.62% | percent inhibition of EphA2 [2]: 0.13% | percent inhibition of FGFR1 [2]: 12.6% | percent inhibition of GSK3b [2]: 3.4% | percent inhibition of HGFR [2]: −7.71% | percent inhibition of IRAK4 [2]: 1.85% | percent inhibition of IRK [2]: 1.53% | percent inhibition of JAK3 [2]: −0.03% | percent inhibition of KDR (VEGF) [2]: 15.08% | percent inhibition of LCK [2]: 17.19% | percent inhibition of MARK1 [2]: 3.46% | percent inhibition of MK2 [2]: −3.62% | percent inhibition of MLCK_sk [2]: 3.8% | percent inhibition of MST2 [2]: 14.89% | percent inhibition of MST4 [2]: 8.04% | percent inhibition of PAK4 [2]: −0.05% | percent inhibition of PDK1 [2]: 0.39% | percent inhibition of PIM2 [2]: −3.78% | percent inhibition of PKACa [2]: −8.79% | percent inhibition of PRKCB2 [2]: 9.78% | percent inhibition of ROCKI [2]: 0.07% | percent inhibition of SGK [2]: −0.06% | percent inhibition of SRC [2]: 2.47% | percent inhibition of TAO2 [2]: 0.55% | percent inhibition of TIE2 [2]: 2.53% | percent inhibition of TRKA [2]: 12.31% | percent inhibition of ZC1 (HGK) [2]: −0.79% | percent inhibition of p38 [2]: 5.64% | pIC50 (mutant G2019S LRRK2): 8.57

Cc1cn(Cc2nc3cnc4ccc(Cl)cc4c3n2[C@@H]2CCO[C@H](C)C2)nn1 [Example 11, 8-Chloro-1-[(2R,4R)-2-methyltetrahydro-2H-pyran-4-yl]-2-[(4-methyl-1H-1,2,3-triazol-1-yl)methyl]-1H-imidazo[4,5-c]quinoline]
pIC50 [1]: 8.47 | percent inhibition of ABL [2]: 5.06% | percent inhibition of AKT [2]: 2.25% | percent inhibition of AURA [2]: 9.46% | percent inhibition of BTK [2]: 1.63% | percent inhibition of CDK2_CyclinA [2]: 10.91% | percent inhibition of CHK1 [2]: 9.08% | percent inhibition of CHK2 [2]: 4.45% | percent inhibition of CKIIa′ [2]: 3.12% | percent inhibition of CKIa [2]: 10.68% | percent inhibition of CaMKIIa [2]: 3.76% | percent inhibition of EGFR [2]: 2.76% | percent inhibition of ERK2 [2]: 4.69% | percent inhibition of EphA2 [2]: 0.7% | percent inhibition of FGFR1 [2]: 21.95% | percent inhibition of GSK3b [2]: 3.91% | percent inhibition of HGFR [2]: −3.76% | percent inhibition of IRAK4 [2]: 4.95% | percent inhibition of IRK [2]: 0.67% | percent inhibition of JAK3 [2]: −0.46% | percent inhibition of KDR (VEGF) [2]: 29% | percent inhibition of LCK [2]: 9.31% | percent inhibition of MARK1 [2]: 1.52% | percent inhibition of MK2 [2]: −1.14% | percent inhibition of MLCK_sk [2]: 4.74% | percent inhibition of MST2 [2]: 23.23% | percent inhibition of MST4 [2]: 10.29% | percent inhibition of PAK4 [2]: 4.23% | percent inhibition of PDK1 [2]: 8.16% | percent inhibition of PIM2 [2]: 4.47% | percent inhibition of PKACa [2]: 5.23% | percent inhibition of PRKCB2 [2]: −0.76% | percent inhibition of ROCKI [2]: 6.94% | percent inhibition of SGK [2]: 4.89% | percent inhibition of SRC [2]: 1.86% | percent inhibition of TAO2 [2]: 5.98% | percent inhibition of TIE2 [2]: 5.85% | percent inhibition of TRKA [2]: 13.01% | percent inhibition of ZC1 (HGK) [2]: 2.87% | percent inhibition of p38 [2]: 7.19% | pIC50 (mutant G2019S LRRK2): 8.59
